In patent publication US10543157B2, “Method of treating a hair disorder with N-hydroxypyridinones” (The Procter & Gamble Company, priority 2016, dated 2020):
Structures can show the parent of a compound that is named as a salt. Values belong to the compound of their own block, whether it stands above or below them.

Legend:
HIF-1α = test: In-vitro cell based HIF-1 stabilization (ELISA); details: human dermal fibroblasts, 4 hrs treatment, normalized to cytochrome c
Text: (§1) Wherein R′ and R″ are independently either hydrogen or a substituted or unsubstituted hydrocarbon group having between 1 and 20 carbon atoms. Compounds of this class can be synthesized following the procedure disclosed in U.S. Pat. No. 5,675,013. In certain aspects, the 2-pyridinol-N-oxide compound is 1-hydroxy-6-(octyloxy)-2(1H)-Pyridinone. This compound can be synthesized following the procedure disclosed in U.S. Pat. No. 5,675,013. Methods In-Vitro Cell Based Method for Measuring HIF-1 Stabilization and VEGF Induction: Human dermal fibroblasts are maintained and treated in Dulbecco's Modified Eagle Medium (DMEM) supplemented with 10% fetal bovine serum (FBS) and 1% penicillin/streptomycin. For HIF and VEGF experiments, cells are plated at 10,000 cells per well in 96-well plates. After two days, cells are treated with materials of interest solubilized in DMSO. DMSO concentration in media never exceeded 0.5%. Treatment times are 4 hrs for HIF-1a and 24 hrs for VEGF. Analytes are assayed via ELISA. After 4 hrs treatment, cells are fixed and assayed for HIF-1a using the Human/Mouse Total HIF-1a Immunoassay (R&D Systems) according to manufacturer instructions. After 24 hrs treatment, spent culture media are harvested and assayed for VEGF using the V-PLEX Human VEGF Kit (MSD) according to manufacturer instructions. HIF-1a and VEGF signals are normalized to cytochrome c signal and ATP signal, respectively, and then compared to that of untreated control. Half-maximal effective concentrations of materials are calculating using GraphPad Prism version 6 software or any other suitable software.

VEGF = test: In-vitro cell based VEGF induction (ELISA); details: human dermal fibroblasts, 24 hrs treatment, spent media, normalized to ATP
Text: as §1

[1] = test system: anagen (growing) hairs of scalp; test: Clinical study #2, anagen hair count; format: in vivo, human; details: for ANAGEN Hair counts Change from Baseline Mean +/− SE / ANAGEN Hair counts Difference of CFBs Mean +/− SE: time not given in table (text: week 8)
Text: (§2) Subjects have the imaging sites located and tattoos placed within the imaging sites to mark the area that will be used for image capture. Three days post-tattoo placement, subjects will begin the pretreatment phase during which they applied their pretreatment products on the designated side of their scalp (left/right) for 11 days as a way of training subjects on the tonic application procedures. After the pretreatment phase has been completed, qualified subjects begin the 16-week treatment phase. Within each treatment group, left/right product assignments are randomized (tonic product and vehicle). In the first study subjects applied the assigned tonic product to the designated side of the scalp twice a day. The morning before each site visit, subjects wash and dry their hair and refrain from applying their test products and any styling aides until after their study visit has been completed. Subjects are instructed to wash hair at least every other day with a standard 2-in-1 shampoo during the entire washout and treatment phases. In the second study, after the pretreatment phase has been completed, subjects had their hair washed using the standard shampoo (½ head washing procedure) by a trained operator and blown dry by themselves. After washing hair (no treatment products and no styling products after washing), the two 1.8×1.8 cm imaging sites on the midfrontal/parietal scalp are clipped for hair count analysis as described below. Site staff then apply the two treatment products to the assigned sites (3×3 cm) on the scalp. Subjects return to the study site later in the day and site staff apply the 2nd application of treatment products for that day (i.e. twice a day tonic application) to each site. The following day, the subjects return to the test site and have their hair washed using the standard shampoo (½ head washing procedure) by site staff and blown dry themselves. Images of the two sites are captured for anagen hair count.
(§3) The following day and for every day during the 8-week treatment phase subjects returned to the study site in the morning and had their hair washed by site staff (½ head washing procedure) and blown dry by themselves in the morning before the 1st application of treatment products of the day. Site staff then apply the two treatment products to the assigned sites (3×3 cm) on the scalp. Subjects return to the study site later in the day and site staff apply the 2nd application of the treatment products for that day (i.e. twice a day tonic application) to each site.
(§4) An efficacy end point of these studies is the change from baseline in target area hair count (hairs/cm2) at week 8 and/or 16, as applicable. Initial hair count and growth phase assessments are performed at baseline and at weeks 8 and 16, as applicable, in a designated target area of the scalp identified by the mini tattoo applied at baseline. The assessments are performed using a 1.8-cm2 square template centered over the mini tattoo. Hair within the template is clipped to approximately 1 mm in length. Photographic imaging equipment is supplied by Canfield Scientific Inc (Fairfield, N.J.) and is used to take macrophotographs of the shaved target area. The equipment comprises a Nikon D-SLR camera body (Nikon Corporation, Tokyo, Japan), Nikkor 60 MM F2.8 lens (Nikon Corporation), and a Canfield Epiflash (Canfield Scientific Inc, Fairfield, N.J.) with a glass contact plate and is preset and locked for magnification, f-stop, and exposure control. […]

[2] = test system: scalp hair (target area hair count); test: Clinical study #1, split-scalp, total hair count; format: in vivo, human; details: for Total Hair Count Change from Baseline Mean +/− SE / Total Hair Count Difference of CFBs (active minus vehicle) Mean +/− SE: topical twice a day, test compound 1%, minoxidil 2% (Rogaine for Women)
Procedure: (§5) Two randomized, double-blind, vehicle-controlled split-scalp studies are conducted as follows:
Two weeks prior to the Baseline visit, subjects are randomized into one of the 2 treatment groups appearing in the table below.
as §2
as §4, with “control. The analysis of the hair count photographs is performed by Canfield's core imaging laboratory. (ref: Harness J A, Kohut B, Garner J, Canfield W, Canfield D, Bertolino A. Evaluation of hair count and thickness measurements in male and female pattern hair loss using a computer-assisted technique. Poster presented at: European Hair Research Society; Zurich, Switzerland, Jul. 7-9, 2005.) The same 1 cm^2 area is mapped among the baseline, week 8, and week 16 images using the dot tattoo as a reference. Each image is then assigned a definite tracking number and randomized before analysis. The compliant and validated Canfield Hair Metrix (Canfield Scientific Inc, Fairfield, N.J.) image analysis application measures the total number of hair fibers and number of telogen and anagen hair.” for “control.”

[3] = test system: telogen (resting) hairs of scalp; test: Clinical study #2, telogen hair count; format: in vivo, human; details: for TELOGEN Hair counts Change from Baseline Mean +/− SE / TELOGEN Hair counts Difference of CFBs Mean +/− SE: time not given in table (text: week 8)
Text: as §2, §3
as §4, with “control. The analysis of the hair count photographs is performed by Canfield's core imaging laboratory. (ref: Harness J A, Kohut B, Garner J, Canfield W, Canfield D, Bertolino A. Evaluation of hair count and thickness measurements in male and female pattern hair loss using a computer-assisted technique. Poster presented at: European Hair Research Society; Zurich, Switzerland, Jul. 7-9, 2005.) The same 1 cm^2 area is mapped among the baseline, week 8, and week 16 images using the dot tattoo as a reference.” for “control.”

[4] = test system: scalp hair (target area hair count); test: Clinical study #2, split-scalp, total hair count; format: in vivo, human; details: topical twice a day
Procedure: as §5, §2
as §3, with “The following day and for every day during the 8-week treatment phase subjects returned to the” left out
An efficacy end point of these studies is the change from baseline in target area hair count (hairs/cm2) at week 8 and/or 16, as applicable. […]

[5] = versus vehicle (minoxidil: versus baseline and vehicle), week 8
[6] = Study #2, 16 weeks (so in the source)

SMILES: Cc1cc(C2CCCCC2)n(O)c(=O)c1 [6-cyclohexyl-1-hydroxy-4-methyl-2(1H)-pyridinone]
- EC50 (HIF-1α; Fibroblast): 3.9 µM
- EC50 (VEGF; Fibroblast): 2.5 µM

- telogen effluvium (shedding) ([3]; conclusion drawn from telogen counts): will not cause telogen effluvium
SMILES: CCCCCCCCOc1cccc(=O)n1O [N-Hydroxy-6-octyloxypyridine-2(1H)one]
- ANAGEN Hair counts Change from Baseline Mean +/− SE [1]: 3.82 +/− 1.14 hairs/cm^2
- ANAGEN Hair counts Difference of CFBs Mean +/− SE [1]: 3.18 +/− 1.22 hairs/cm^2
- number of anagen (growing) hairs (in words) [1, 5]: significant increase in growing hairs
- Total Hair Count Change from Baseline Mean +/− SE ([2]; Study #1, 8 weeks): 6.15 +/− 1.91 hairs/cm^2
- Total Hair Count Difference of CFBs (active minus vehicle) Mean +/− SE ([2]; Study #1, 8 weeks): 3.94 +/− 1.71 hairs/cm^2
- Total Hair Count Change from Baseline Mean +/− SE ([2]; Study #1, 16 weeks): 3.11 +/− 1.79 hairs/cm^2
- Total Hair Count Difference of CFBs (active minus vehicle) Mean +/− SE ([2]; Study #1, 16 weeks): 3.27 +/− 1.73 hairs/cm^2
- hair count response as share of the minoxidil response, on average ([2]; Study #1, average of week 8 and 16): 29%
- hair count from baseline and above vehicle treatment (in words) ([2]; Study #1, week 8 & 16 (p=0.019 and p=0.045)): significant increase in hair count
- EC50 (HIF-1α; Fibroblast): 17 µM
- TELOGEN Hair counts Change from Baseline Mean +/− SE [3]: 2.96 +/− 1.11 hairs/cm^2
- TELOGEN Hair counts Difference of CFBs Mean +/− SE [3]: 0.51 +/− 1.21 hairs/cm^2
- number of telogen (resting) hairs (in words) [3, 5]: little or no effect
- Total Hair Count Change from Baseline Mean +/− SE ([4]; Study #2, 8 weeks, 0.9%): 10.13 +/− 1.15 hairs/cm^2
- Total Hair Count Difference of CFBs (active minus vehicle) Mean +/− SE ([4]; Study #2, 8 weeks, 0.9%): 3.35 +/− 1.37 hairs/cm^2
- EC50 (VEGF; Fibroblast): 30 µM

SMILES: CCOC(=O)c1ccnc(C(=O)OCC)c1 [2,4-DPD, 2,4-pyridinedicarboxylic acid, diethyl ester, reference compound]
- EC50 (HIF-1α; Fibroblast): 406 µM
- EC50 VEGF Induction (VEGF): no response

SMILES: CCCCCCCCOc1cccc(=O)n1O [N-Hydroxy-6-octyloxypyridine-2(1H)one, ethanolamine salt]
- EC50 (VEGF): 13 µM

SMILES: Nc1cc(N2CCCCC2)nc(N)[n+]1[O-] [Minoxidil, reference compound]
- ANAGEN Hair counts Change from Baseline Mean +/− SE [1]: 8.66 +/− 1.75 hairs/cm^2
- ANAGEN Hair counts Difference of CFBs Mean +/− SE [1]: 7.79 +/− 1.87 hairs/cm^2
- Total Hair Count Change from Baseline Mean +/− SE ([2]; Study #1, 8 weeks): 14.3 +/− 2.98 hairs/cm^2
- Total Hair Count Difference of CFBs (active minus vehicle) Mean +/− SE ([2]; Study #1, 8 weeks): 11.29 +/− 3.02 hairs/cm^2
- Total Hair Count Change from Baseline Mean +/− SE ([2]; Study #1, 16 weeks): 14.83 +/− 3.53 hairs/cm^2
- Total Hair Count Difference of CFBs (active minus vehicle) Mean +/− SE ([2]; Study #1, 16 weeks): 13.45 +/− 3.47 hairs/cm^2
- TELOGEN Hair counts Change from Baseline Mean +/− SE [3]: −4.07 +/− 1.71 hairs/cm^2
- TELOGEN Hair counts Difference of CFBs Mean +/− SE [3]: −7.45 +/− 1.85 hairs/cm^2
- Total Hair Count Change from Baseline Mean +/− SE [4, 6]: 12.93 +/− 1.77 hairs/cm^2
- Total Hair Count Difference of CFBs (active minus vehicle) Mean +/− SE [4, 6]: 5.76 +/− 2.1 hairs/cm^2

SMILES: Cc1cc(CC(C)CC(C)(C)C)n(O)c(=O)c1 (stereo not shown) [1-Hydroxy-4-methyl-6-(2,4,4-trimethylpentyl)pyridin-2(1H)-one ethanolammonium salt]
- EC50 (HIF-1α): 0.4 µM
- EC50 (VEGF): 2.1 µM
